Measurements: ChEMBL document CHEMBL1614632, “Trend analysis of a database of intravenous pharmacokinetic parameters in humans for 670 drug compounds” (Drug Metab Dispos, 2008)

Tests used:
[1] = clinical; conditions: human, in vivo, iv
[2] = clinical; conditions: human, in vivo, iv, t1/2
[3] = clinical; conditions: human, in vivo, iv, Vdss
[4] = clinical; conditions: human, in vivo, iv, CL

| SMILES | MRT [1] | half-life [2] | Vd [3] | clearance [4] |
| --- | --- | --- | --- | --- |
| NC[C@H]1O[C@H](O[C@H]2[C@H](O)[C@@H](O[C@H]3O[C@H](CO)[C@@H](O)[C@H](N)[C@H]3O)[C@H](N)C[C@@H]2N)[C@H](O)[C@@H](O)[C@@H]1O [KANAMYCIN] | 3.1 h | 2.1 h | 0.26 L/kg | 1.4 mL/min/kg |
| COc1cccc2c1C(=O)c1c(O)c3c(c(O)c1C2=O)C[C@@](O)(C(=O)CO)C[C@@H]3O[C@H]1C[C@H](N)[C@H](O)[C@H](C)O1 [DOXORUBICIN] | 24 h | 32 h | 22 L/kg | 15 mL/min/kg |
| CN1C(=O)C(O)N=C(c2ccccc2Cl)c2cc(Cl)ccc21 (centres undefined) [LORMETAZEPAM] | 6.7 h | 4.9 h | 1.6 L/kg | 4 mL/min/kg |
| CCCCCN(CCCOC)C(=O)[C@@H](CCC(=O)O)NC(=O)c1ccc(Cl)c(Cl)c1 [DEXLOXIGLUMIDE] | 0.79 h | 1.2 h | 0.18 L/kg | 3.7 mL/min/kg |
| Nc1nc2c(c(=O)[nH]1)N(C=O)C(CNc1ccc(C(=O)N[C@@H](CCC(=O)O)C(=O)O)cc1)CN2 (some centres undefined) [LEUCOVORIN] | 0.8 h | 1.3 h | 0.25 L/kg | 5.8 mL/min/kg |
| COc1c(N2CCNC(C)C2)c(F)cc2c(=O)c(C(=O)O)cn(C3CC3)c12 (centres undefined) [GATIFLOXACIN] | 11 h | 10 h | 1.7 L/kg | 2.8 mL/min/kg |
| CC1(C)S[C@@H]2[C@H](/N=C/N3CCCCCC3)C(=O)N2[C@H]1C(=O)O [AMDINOCILLIN] | 1 h | 1.1 h | 0.37 L/kg | 6.3 mL/min/kg |
| COc1cccc(C2(O)CCCCC2CN(C)C)c1 (centres undefined) [TRAMADOL] | 7.2 h | 5.8 h | 2.8 L/kg | 6.5 mL/min/kg |
| OC(CNCC(O)C1CCc2cc(F)ccc2O1)C1CCc2cc(F)ccc2O1 (centres undefined) [NEBIVOLOL] | 13 h | 10 h | 11 L/kg | 14 mL/min/kg |
| CC1(C)S[C@@H]2[C@H](NC(=O)[C@H](N)c3ccccc3)C(=O)N2[C@H]1C(=O)O [AMPICILLIN] | 1.3 h | 1.4 h | 0.22 L/kg | 2.8 mL/min/kg |
| CC(C)[C@H]1CC[C@H](C(=O)N[C@H](Cc2ccccc2)C(=O)O)CC1 [NATEGLINIDE] | 1.4 h | 1.5 h | 0.15 L/kg | 1.8 mL/min/kg |
| CN/C(=N/CCSCc1nc[nH]c1C)NC#N [CIMETIDINE] | 2.5 h | 2.2 h | 1.2 L/kg | 8.1 mL/min/kg |
| O=C(O)C1N=C(c2ccccc2)c2cc(Cl)ccc2NC1=O (centres undefined) [CLORAZEPIC ACID] | 3 h | 2.4 h | 0.2 L/kg | 1.1 mL/min/kg |
| CO[C@H]1C[C@@H]2CC[C@@H](C)[C@@](O)(O2)C(=O)C(=O)N2CCCC[C@H]2C(=O)O[C@H]([C@H](C)C[C@@H]2CC[C@H](n3cnnn3)[C@H](OC)C2)CC(=O)[C@H](C)/C=C(\C)[C@@H](O)[C@@H](OC)C(=O)[C@H](C)C[C@H](C)/C=C/C=C/C=C/1C [ZOTAROLIMUS] | 33 h | 35 h | 1.3 L/kg | 0.67 mL/min/kg |
| CCOc1ccccc1OCCN[C@H](C)Cc1ccc(OC)c(S(N)(=O)=O)c1 [TAMSULOSIN] | 5.6 h | 6.8 h | 0.21 L/kg | 0.62 mL/min/kg |
| CO[C@H]1/C=C/O[C@@]2(C)Oc3c(C)c(O)c4c(c3C2=O)C2=NC3(CCN(CC(C)C)CC3)NC2=C(NC(=O)/C(C)=C\C=C\[C@H](C)[C@H](O)[C@@H](C)[C@@H](O)[C@@H](C)[C@H](OC(C)=O)[C@@H]1C)C4=O [RIFABUTIN] | 65 h | 37 h | 9.3 L/kg | 2.4 mL/min/kg |
| Cc1cnc(NCCCN(C)C)c2c1[nH]c1ccc3cc(O)ccc3c12 [INTOPLICINE] | 11 h | 19 h | 11 L/kg | 18 mL/min/kg |
| Cn1c(=O)c2c(ncn2C)n(C)c1=O [CAFFEINE] | 7.5 h | 4.9 h | 0.63 L/kg | 1.4 mL/min/kg |
| Cn1cc(NC(=O)Nc2cc(C(=O)Nc3cc(C(=O)Nc4ccc5cc(S(=O)(=O)O)cc(S(=O)(=O)O)c5c4)n(C)c3)n(C)c2)cc1C(=O)Nc1cc(C(=O)Nc2ccc3cc(S(=O)(=O)O)cc(S(=O)(=O)O)c3c2)n(C)c1 | 960 h | 730 h | 0.27 L/kg | 0.0047 mL/min/kg |
| NC[C@H]1CC[C@H](C(=O)O)CC1 [TRANEXAMIC ACID] | 2.6 h | 2.3 h | 0.38 L/kg | 2.4 mL/min/kg |
| NC[C@H]1O[C@H](O[C@H]2[C@H](O[C@@H]3O[C@H](CO)[C@@H](O)[C@H]3O)[C@@H](O)[C@H](N)C[C@@H]2N)[C@H](N)[C@@H](O)[C@@H]1O [RIBOSTAMYCIN] | 2.8 h | 2.5 h | 0.25 L/kg | 1.5 mL/min/kg |
| CCOC(=O)Nc1ccc(NCc2ccc(F)cc2)nc1N [FLUPIRTINE] | 11 h | 8.5 h | 1.1 L/kg | 1.6 mL/min/kg |
| C#CCN(C)[C@H](C)Cc1ccccc1 [SELEGILINE] | 1.6 h | 1.3 h | 1.9 L/kg | 20 mL/min/kg |

| SMILES | MRT [1] | half-life [2] | Vd [3] | clearance [4] |
| --- | --- | --- | --- | --- |
| Cc1[nH]c(=O)c(C#N)cc1-c1ccncc1 [MILRINONE] | 0.67 h | 0.8 h | 0.25 L/kg | 6.2 mL/min/kg |
| CC(=N)N1CC[C@H](SC2=C(C(=O)O)N3C(=O)[C@H]([C@@H](C)O)[C@H]3C2)C1 | 1.2 h | 0.96 h | 0.19 L/kg | 2.6 mL/min/kg |
| Cc1cccc(C)c1NC(=O)C(C)N (centres undefined) [TOCAINIDE] | 14 h | 12 h | 1.8 L/kg | 2.2 mL/min/kg |
| COC(=O)C1=C(C)NC(C)=C(C(=O)OCCCN2CCC(c3ccccc3)(c3ccccc3)CC2)[C@@H]1c1cccc([N+](=O)[O-])c1 [DEXNIGULDIPINE] | 15 h | 22 h | 8.4 L/kg | 9.3 mL/min/kg |
| CC(CC(c1ccccc1)c1ccccc1)NC(C)(C)C (centres undefined) [TERODILINE] | 81 h | 56 h | 5.1 L/kg | 1.1 mL/min/kg |
| CCC1(c2ccccc2)C(=O)NC(=O)NC1=O [PHENOBARBITAL] | 140 h | 99 h | 0.54 L/kg | 0.063 mL/min/kg |
| NC(=O)CC[C@@H]1NC(=O)[C@H](Cc2ccccc2)NC(=O)[C@H](Cc2ccc(O)cc2)NC(=O)CCSSC[C@@H](C(=O)N2CCC[C@H]2C(=O)N[C@H](CCCN=C(N)N)C(=O)NCC(N)=O)NC(=O)[C@H](CC(N)=O)NC1=O [DESMOPRESSIN] | 3.6 h | 3 h | 0.3 L/kg | 1.4 mL/min/kg |
| Clc1cccc(N2CCNCC2)c1 [CHLOROPHENYLPIPERAZINE] | 7 h | 4.7 h | 2.5 L/kg | 6.1 mL/min/kg |
| CN(C)CCC=C1c2ccccc2COc2ccccc21 [DOXEPIN] | 15 h | 15 h | 12 L/kg | 14 mL/min/kg |
| CC1COc2c(N3CCN(C)CC3)c(F)cc3c(=O)c(C(=O)O)cn1c23 (centres undefined) [OFLOXACIN] | 11 h | 8.9 h | 1.6 L/kg | 2.5 mL/min/kg |
| C[C@H]([C@](O)(Cn1cncn1)c1ccc(F)cc1F)S(C)(=O)=O [GENACONAZOLE] | 54 h | 49 h | 0.62 L/kg | 0.19 mL/min/kg |
| CCC(=O)C1(c2cccc(O)c2)CCN(C)CC1 [KETOBEMIDONE] | 0.87 h | 2.3 h | 0.48 L/kg | 9.2 mL/min/kg |
| C[C@]12CCC(=O)C=C1CC[C@@H]1[C@@H]2[C@@H](O)C[C@@]2(C)[C@H]1CC[C@]2(O)C(=O)CO [HYDROCORTISONE] | 1.9 h | 1.6 h | 0.38 L/kg | 5.7 mL/min/kg |
| Nc1ncn([C@H]2C[C@H](O)[C@@H](CO)O2)c(=O)n1 [DECITABINE] | 0.59 h | 0.58 h | 4.6 L/kg | 130 mL/min/kg |
| CCCCCC/C=C\CCCCCCCCCC(=O)N[C@H]1[C@H](OC[C@H]2O[C@H](OP(=O)(O)O)[C@H](NC(=O)CC(=O)CCCCCCCCCCC)[C@@H](OCCCCCCCCCC)[C@@H]2O)O[C@H](COC)[C@@H](OP(=O)(O)O)[C@@H]1OCC[C@@H](CCCCCCC)OC [ERITORAN] | 62 h | 51 h | 0.048 L/kg | 0.013 mL/min/kg |
| CN(C)Cc1nnc2n1-c1ccc(Cl)cc1C(c1ccccc1)=NC2 [ADINAZOLAM] | 2.6 h | 2.1 h | 0.98 L/kg | 6.2 mL/min/kg |
| CNC(=O)c1c(I)c(NC(C)=O)c(I)c(C(=O)O)c1I [IOTHALAMIC ACID] | 1.2 h | 1.3 h | 0.17 L/kg | 2.4 mL/min/kg |
| CC1=NS(=O)(=O)c2cc(Cl)ccc2N1 [DIAZOXIDE] | 58 h | 48 h | 0.21 L/kg | 0.06 mL/min/kg |
| CN(C)C(=O)Oc1cccc([N+](C)(C)C)c1.[Br-] [NEOSTIGMINE BROMIDE] | 1.3 h | 1.3 h | 0.74 L/kg | 9.2 mL/min/kg |
| Cc1c(OCC(F)(F)F)ccnc1C[S+]([O-])c1nc2ccccc2[nH]1 (centres undefined) [LANSOPRAZOLE] | 1.1 h | 1 h | 0.28 L/kg | 4.4 mL/min/kg |
| CN[C@H](CC(C)C)C(=O)N[C@H]1C(=O)N[C@@H](CC(N)=O)C(=O)N[C@H]2C(=O)N[C@H]3C(=O)N[C@H](C(=O)N[C@H](C(=O)O)c4cc(O)cc(O)c4-c4cc3ccc4O)[C@H](O)c3ccc(c(Cl)c3)Oc3cc2cc(c3O[C@@H]2O[C@H](CO)[C@@H](O)[C@H](O)[C@H]2O[C@H]2C[C@](C)(N)[C@H](O)[C@H](C)O2)Oc2ccc(cc2Cl)[C@H]1O [VANCOMYCIN] | 6.9 h | 6.5 h | 0.54 L/kg | 1.3 mL/min/kg |
| Cc1ccc(-c2nc3ccc(C)cn3c2CC(=O)N(C)C)cc1 [ZOLPIDEM] | 2.1 h | 1.7 h | 0.54 L/kg | 4.3 mL/min/kg |
| COCCCOc1ccnc(C[S+]([O-])c2nc3ccccc3[nH]2)c1C (centres undefined) [RABEPRAZOLE] | 0.92 h | 1 h | 0.22 L/kg | 4 mL/min/kg |
